The source of these data is patent US20200268728A1, “DRUG TARGETING CANCER STEM CELL” (Sumitomo Dainippon Pharma Co., Ltd., priority 2016, published 2020).

One assay has as its system HCT-116 cells. Briefly: Test for inhibiting sphere-forming ability of cancer cells (Test Example 1). Conditions: Homo sapiens, 96 h, non-adherent serum-free sphere culture, 4 days, CellTiter-Glo, read-out: IC50 (μmol/L), Sphere IC50 value, concentration for 50% inhibition of cell proliferation. It is filed as cell-based, human. Here is the method:
The reliable methods established for measuring the self-renewal ability of cells which is one of the CSC's properties include a method for measuring the sphere-forming ability of cancer cells in non-adherent condition in the absence of serum (Cancer Res 65, 5506-5511 (2005)). HCT-116 cells were available from the American Type Culture Collection (ATCC). HCT-116 cells were cultured at 37° C. and 5% CO2 using the McCoy's 5a medium containing 10% fetal bovine serum (FBS), 100 U/ml penicillin, and 100 μg/ml streptomycin. HCT-116 cells were seeded in a 384 Well Black Clear Bottom Ultra-Low Attachment Microplate (Corning Cat. No. 3827) in an amount of 350-800 cells/well using the DMEM/F12 medium containing 2% B27 supplement (GIBCO), 20 ng/mL epidermal growth factor (EGF) (peprotech), 10 ng/mL basic fibroblast growth factor (bFGF) (peprotech), 5 μg/mL insulin (Sigma), and 1% penicillin/streptomycin. The test compounds were added into each well to adjust the final concentration of DMSO to 0.1%, and the cells were cultured for 4 days. The number of viable cells in each well was then measured with CellTiter-Glo® Luminescent Cell Viability Assay (Promega) to calculate the concentration of each test compound for 50% inhibition of cell proliferation (Sphere IC50 value; μmol/L).
The experiment of Test Example 1 was performed for the compounds of each Example.

The test system of another assay is SW480. Briefly: Sphere-forming ability of cultured cancer cell lines (Test Example 10). It is filed as cell-based. To be noted: Homo sapiens, 96 h; SW480 colon cancer cell line, 4 days. Here is the method:
(§1) The colon cancer cell lines SW480, DLD1, HCT15, HT29, SW948, LS174T, LS411N, SW620, LoVo, HCT116, Colo205, and Hs698T, the pancreatic cancer cell lines MiaPaca2, HPAFII, Capan2, and Panc1, the head and neck cancer cell line FaDu, the breast cancer cell lines HCC1954 and T47D, the bladder cancer cell line SW780, the liver cancer cell line HepG2, the neuroblastoma cell lines U87MG and U251, the lung cancer cell lines H460, H1437, and A549, the prostate cancer cell lines DU145 and PC3, the soft tissue tumor cell line HT1080, the testicular cancer cell line NTERA2, and the ovarian cancer cell line SKOV3 was suspended in the sphere formation medium (DMEM-F12 medium of Test Example 3 was used), and seeded in a 384-well plate with Ultra-Low Attachment surface (Corning) in an amount of 5×10^3-10×10^3 cells/well. The compound of Example 24 was then added into each well to adjust the final concentration to 10-10000 nmol/L. The plate was cultured at 37° C. and 5% carbon dioxide in an incubator for 4 days. After the culture, CellTiterGlo (Promega) was added into all of the wells, and the plate was allowed to stand at room temperature for 10 minutes to measure the intensity of luminescence of each well. The concentrations of each test compound for 50% inhibition of cell proliferation to the cell lines (Sphere IC50 value; μmol/L) was calculated from the measured intensity of luminescence. When each gene mutation in Table is reported, the mutation is represented by “+” (gene mutation information is cited from the ATCC website (https://www.atcc.org/en/Products/Cells_and_Microorganisms/Cell_Lines/Cell_lines_by_genetic_mutation.aspx), Cancer Cell Line Encyclopedia (https://portals.broadinstitute.org/ccle_legacy/home), Proc. Natl. Acad. Sci. USA 94 (1997) 10330-10334).

A further assay concerns MIA PaCa-2. Described as above. It is filed as cell-based. Conditions: Homo sapiens, 96 h; MIA PaCa-2 pancreatic cancer cell line, 4 days. Here is the method:
as §1

A further assay has as its system FaDu. The assay is described as above. To be noted: Homo sapiens, 96 h; FaDu head and neck cancer cell line, 4 days. It is filed as cell-based. How it is done: as §1
In the next assay the test system is HT-1080. Described as above. To be noted: Homo sapiens, 96 h; HT-1080 soft tissue tumor cell line, 4 days. It is filed as cell-based. How it is done:
as §1

As to `O=C(Nc1cn(Cc2cc(F)c(F)c(F)c2)cn1)c1cnc(CO)c(C(F)F)c1` [Example 24, 5-(difluoromethyl)-6-(hydroxymethyl)-N-[1-(3,4,5-trifluorobenzyl)-1H-imidazol-4-yl]nicotinamide], the IC50 was under 0.01 µmol/L with HCT-116 cells; 4 nM with SW480; 8 nM in the assay with MIA PaCa-2; 9 nM in the assay on FaDu; over 10000 nM with HT-1080.
